Counter-ions that a name gives are not always drawn.
Columns and labels:
[1] = system: HIV; test: HIV infection in cell culture, syncytia formation in PBLs; assay type: cell-based; conditions: HIV-infected normal human blood lymphocytes (PBLs); 50% suppression of virus-induced syncytia
Experimental: (§1) The HIV test was carried out with slight modifications by the method of Pauwels et al. [cf. Journal of Virological Methods 20, (1988), 309-321].
Normal human blood lymphocytes (PBLs) were enriched on Ficoll-Hypaque and stimulated in RPMI 1640, 20% foetal calf serum containing phytohaemagglutinin (90 μg/ml) and interleukin-2 (40 U/ml). For infection with the infectious HIV, PBLs were pelleted and the cell pellet was then suspended in 1 ml of HIV virus adsorption solution and incubated for 1 hour at 37° C.
The virus adsorption solution was centrifuged and the infected cell pellet taken up in growth medium so that a concentration of 1×10^5 cells per ml was established. The cells infected in such a way were pipetted at 1×10^4 cells/well into the wells of 96-well microtitre plates.
The first vertical row of the microtitre plate contained only growth medium and cells which had not been infected, but otherwise had been treated exactly as described above (cell control). The second vertical row of the microtitre plate contained only HIV-infected cells (virus control) in growth medium. The other wells contained the compounds according to the invention in different concentrations, starting from the wells of the 3rd vertical row of the microtitre plate, from which the test substances were diluted 2^10 times in steps of two.
The test batches were incubated at 37° C. until in the untreated virus control the syncytia formation typical of HIV occurred (between day 3 and 6 after infection), which was then assessed by microscopy.
(§2) The IC50 values were determined as the concentrations of the […] at which 50% (about 10 syncytia) of the virus-induced syncytia were suppressed by the treatment with the compound according to the invention.

[2] = target: T1, HIV protease (HIV-1) (Human immunodeficiency virus type 1 group M subtype B, UniProt P04585); test: HIV-specific protease enzyme test (RP-HPLC analysis of synthetic peptide cleavage); assay type: biochemical; conditions: purified HIV protease, synthetic Gag cleavage-site peptide
T1 construct: purified HIV protease was incubated with synthetic peptide
Experimental: The results of the examples listed below were determined by the HIV test system described in the following references [cf. Hansen, J., Billich, S., Schulze, T., Sukrow, S. and Molling, K. (1988), EMBO Journal, Vol. 7, No. 6, pp. 1785-1791]: purified HIV protease was incubated with synthetic peptide which imitates a cleavage site in the Gag precursor protein and represents an in vivo cleavage site of the HIV protease. The resulting cleavage products of the synthetic peptide were analysed by means of reverse phase high performance liquid chromatography (RP-HPLC). The IC50 values given relate to the substance concentration which causes a 50% strength inhibition of the protease activity under the above-mentioned test conditions.

[3] = system: HIV; test: HIV infection in cell culture, H-9 cells; assay type: cell-based; conditions: HIV-infected H-9 cells
Experimental: as §1, §2

Q: For “1-{(2R,4S,5S)-5-[(2S)-3-(tert-Butylsulphonyl)-2-(1-naphthylmethyl)propanoyl]-(2R)-N-(tert-butoxycarbonyl)-2-amino-2-[2-(1,3-dithiolan-2-yl)ethanoyl]amino-6-cyclohexyl-4-hydroxy-2-(1-methyl)ethyl-hexanoyl}-S-isoleucinyl-2-pyridylamide [Example 8]”, which IC50 [1] is on record?
A: 1000 nM

Q: What about the IC50 [2] of the same compound?
A: 1.2 to 9 nM

Q: For “1-{(2R,S,4S,5S) -5-[(2R)-N-(tert-Butoxycarbonyl)-2-amino-2-[2-(1,3-dithiolan-2-yl)]ethanoyl]amino-6-cyclohexyl-4-hydroxy-2-(1-methyl)ethyl-hexanoyl}-S-isoleucinyl2-pyridylamide [Example 1]”, which IC50 [1] is on record?
A: > 1000 nM

Q: And the IC50 [2]?
A: 1.4 to 9 nM

Q: Which results are given for “1-}(2S,4S,5S)-5-[(2S)-3-(tert-Butylsulphonyl)-2-(1-naphthylmethyl)propanoyl]-(2R)-N-(tert-butoxycarbonyl)-2-amino-2-[2-(1,3-dithiolan-2-yl)]ethanoyl]amino-6-cyclohexyl-4-hydroxy-2-(1-methyl)ethyl-hexanoyl}-S-isoleucinyl-2-pyridylamide [Example 9]”?
A: IC50 [3]: 11 nM; IC50 [1]: 40 nM; IC50 [2]: 1 to 9 nM

Q: What does the source list for `CC[C@H](C)[C@H](NC(=O)C(C[C@H](O)[C@H](CC1CCCCC1)NC(=O)[C@@H](N)C1SCCS1)C(C)C)C(=O)Nc1ccccn1` (stereo partly drawn) [Example 2, 1-{(2R,S;4S,5S)-5-[(2R)-2-Amino-2-[2-(1,3-dithiolan-2-yl)]ethanoyl]-amino-6-cyclohexyl-4-hydroxy-2-(1-methyl)ethyl-hexanoyl}-S-isoleucinyl-2-pyridylamide dihydrochloride]?
A: IC50 [1]: 10000 nM; IC50 [2]: 1.3 to 9 nM

Q: What does the source list for `CC[C@H](C)[C@H](NC(=O)[C@H](Cc1ccccc1)C[C@H](O)[C@H](CC1CCCCC1)NC(=O)[C@@H](NC(=O)OC(C)(C)C)C1SCCS1)C(=O)Nc1ccccn1` [Example 3, 1-{(2R,4S,5S)-5-[(2R)-N-(tert-Butoxycarbonyl)-2-amino-2-[2-(1,3-dithiolan-2-yl)]ethanoyl]amino-6-cyclohexyl-4-hydroxy-2-(phenyl)methyl-hexanoyl}-S-isoleucinyl-2-pyridylamide]?
A: IC50 [1]: 1000 nM; IC50 [2]: 13 to 80 nM

Q: Which IC50 [1] does the source give for `CC[C@H](C)[C@H](NC(=O)[C@@H](Cc1ccccc1)C[C@H](O)[C@H](CC1CCCCC1)NC(=O)[C@@H](NC(=O)OC(C)(C)C)C1SCCS1)C(=O)Nc1ccccn1` [Example 4, 1-{(2S,4S,5S)-5-[(2R)-N-(tert-Butoxycarbonyl)-2-amino-2-[2-(1,3-dithiolan-2-yl)]ethanoyl]amino-6-cyclohexyl-4-hydroxy-2-(phenyl)methyl-hexanoyl}-S-isoleucinyl2-pyridylamide] here?
A: 1000 nM

Q: And the IC50 [2]?
A: 16 to 80 nM

Q: What does the source list for `C=CCC(C[C@H](O)[C@H](CC1CCCCC1)NC(=O)[C@@H](NC(=O)OC(C)(C)C)C1SCCS1)C(=O)N[C@H](C(=O)Nc1ccccn1)[C@@H](C)CC` (stereo partly drawn) [Example 5, 1-{(2R,S,4S,5S)-5-[(2R)-N-(tert-Butoxycarbonyl)-2-amino-2-[2-(1,3-dithiolan-2-yl)]ethanoyl]amino-6-cyclohexyl-4-hydroxy-2-(2-propenyl)-hexanoyl}-S-isoleucinyl-2-pyridylamide]?
A: IC50 [1]: 400 nM; IC50 [2]: 1.4 to 9 nM
